Experimental data taken from ChEMBL document CHEMBL1201862, “PubChem BioAssay data set” (2004).
Activity calls are given as the source filed them.

Assays:
Bcl-2-related protein A1 [1] = biological target: T1, Bcl-2-related protein A1 (Mus musculus, UniProt Q07440); assay: Bfl-1 binding inhibitors, SAR follow-up, biochemical, fluorescence polarization (AID 1070)
T1 sequence (Q07440 whole entry): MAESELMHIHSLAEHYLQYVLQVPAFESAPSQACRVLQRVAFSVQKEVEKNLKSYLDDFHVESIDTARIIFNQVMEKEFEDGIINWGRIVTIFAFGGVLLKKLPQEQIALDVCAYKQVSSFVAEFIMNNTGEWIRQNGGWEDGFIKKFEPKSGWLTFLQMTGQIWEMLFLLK

[2] = biological target: Glyceraldehyde-3-phosphate dehydrogenase (Homo sapiens, UniProt P04406)
Bcl-2-related protein A1 [3] = biological target: T1, Bcl-2-related protein A1; assay: small-molecule antagonists of Bfl-1/BH3 interaction – biochemical, TR-FRET, mouse Bfl-1, confirmation (AID 621);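 further: TR-FRET binding of GST-Bfl-1 to FITC-labelled Bid peptide via terbium antibody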
NADPH oxidase 1 = NADPH oxidase 1 (Homo sapiens, UniProt Q9Y5S8); type: functional, cell-based;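 further: Cell-based assay with luminescence read-out, IC50 derived from inhibitor dose-response curves; intracellular ROS from endogenous NOX1 in intact HT29 colon cancer cells; potency of inhibitors that lower the ROS luminescence signal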
[4] = biological target: T2, Heat shock factor protein 1 (Mus musculus, UniProt P38532); assay: decrease of HSF1-responsive luciferase luminescence – cell-based, NIH3T3, dose retest, confirmation (AID 2382); type: functional;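 further: NIH3T3 fibroblasts with HSF1-driven luciferase reporter stressed by proteasome inhibitor MG132; luminescence from HSF1-driven luciferase expression after 8 hours of MG132 stress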
T2 sequence (P38532 whole entry): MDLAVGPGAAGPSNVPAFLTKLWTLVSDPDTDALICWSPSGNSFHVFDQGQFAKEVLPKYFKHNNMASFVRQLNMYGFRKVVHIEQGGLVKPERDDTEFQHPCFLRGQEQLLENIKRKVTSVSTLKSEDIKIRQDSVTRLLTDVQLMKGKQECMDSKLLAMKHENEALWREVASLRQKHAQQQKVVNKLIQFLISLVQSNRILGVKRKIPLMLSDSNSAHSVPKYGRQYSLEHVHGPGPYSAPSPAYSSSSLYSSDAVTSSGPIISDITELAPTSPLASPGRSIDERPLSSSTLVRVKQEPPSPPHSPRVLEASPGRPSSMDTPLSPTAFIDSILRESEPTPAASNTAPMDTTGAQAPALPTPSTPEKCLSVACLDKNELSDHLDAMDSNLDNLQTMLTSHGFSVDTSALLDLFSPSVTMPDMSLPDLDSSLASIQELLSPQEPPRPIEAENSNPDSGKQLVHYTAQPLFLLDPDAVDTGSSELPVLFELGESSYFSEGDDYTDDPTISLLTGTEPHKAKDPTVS

[5] = biological target: T3, Neuropeptide Y receptor type 1 (Homo sapiens, UniProt P25929); type: functional;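 further: HEK293 cells with a CNG channel challenged with NPY then isoproterenol; potency as antagonist that reverses NPY suppression of cAMP signal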
T3 sequence (P25929 whole entry): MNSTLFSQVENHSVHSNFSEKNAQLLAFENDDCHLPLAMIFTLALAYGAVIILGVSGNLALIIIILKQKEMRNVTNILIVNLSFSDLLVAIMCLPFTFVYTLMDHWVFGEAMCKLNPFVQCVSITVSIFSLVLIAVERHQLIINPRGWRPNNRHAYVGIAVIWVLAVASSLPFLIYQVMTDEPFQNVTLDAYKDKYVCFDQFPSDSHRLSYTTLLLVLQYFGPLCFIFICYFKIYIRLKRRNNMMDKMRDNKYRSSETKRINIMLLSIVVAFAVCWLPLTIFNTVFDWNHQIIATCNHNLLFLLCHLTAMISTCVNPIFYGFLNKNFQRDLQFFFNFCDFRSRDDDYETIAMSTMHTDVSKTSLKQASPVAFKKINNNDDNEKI

[6] = antiviral protection against BTV-induced cell death – arbovirus, BSR cells, confirmation (AID 1250); type: functional;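 further: protection from viral cytopathic effect measured as cell viability by ATP luminescence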
[7] = biological target: T4, Neuropeptide Y receptor type 2 (Homo sapiens, UniProt P49146); assay: IC50 for human NPY-Y2 blockade – cell-based, counter-screen for NPY-Y1 antagonist project, dose response (AID 1278); type: functional
T4 sequence (P49146 whole entry): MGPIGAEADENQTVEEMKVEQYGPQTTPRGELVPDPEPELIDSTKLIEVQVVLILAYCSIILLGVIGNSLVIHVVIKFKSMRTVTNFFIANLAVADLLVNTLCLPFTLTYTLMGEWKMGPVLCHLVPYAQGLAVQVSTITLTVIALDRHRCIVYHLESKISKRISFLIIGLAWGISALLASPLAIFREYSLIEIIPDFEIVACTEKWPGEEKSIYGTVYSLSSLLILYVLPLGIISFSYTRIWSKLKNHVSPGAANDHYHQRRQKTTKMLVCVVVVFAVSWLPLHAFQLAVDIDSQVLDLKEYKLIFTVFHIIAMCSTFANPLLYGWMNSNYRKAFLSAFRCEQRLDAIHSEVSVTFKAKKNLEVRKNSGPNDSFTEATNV

[8] = biological target: T3, Neuropeptide Y receptor type 1; assay: IC50 of human NPY-Y1 blockers – cell-based, dose response (AID 1277); type: functional
INS1 = assay: INS-1E survival protection against cytokine death – cell-based, luminescence, retest, dose response (AID 449756); type: functional; settings: Rattus norvegicus;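 further: cell death triggered by IL-1 beta plus TNF-alpha plus IFN-gamma mixture; protective hits raise ATP signal compared with cytokine alone wells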
[9] = NIH-3T3 fibroblast cytotoxicity, dose response, cytotoxicity control, cell-based, fluorescence, Alamar Blue, secondary assay (AID 2327); type: functional;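 further: NIH-3T3 mouse fibroblasts cultured with fluconazole at 8 µg/mL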
[10] = fluconazole-exposed Candida albicans growth modulators – fluorescence, retest, confirmation (AID 2467); type: functional, cell-based
[11] = HEK-293T cell viability reduction – luminescence, B-cell screen hits, cytotoxicity control for BCR NF-kB inhibitor project, dose response (AID 489021); type: functional, cell-based;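 further: HEK-293T cells carrying an NF-kB luciferase reporter; cells exposed to compound for about 14 hours before viability readout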
[12] = biological target: Luciferin 4-monooxygenase (Photinus pyralis, UniProt P08659); assay: Counter Screen for Luciferase-based Assay Positives. [Related pubchem assays: 620, 618, 411 ]
HT-1080 = assay: HT1080 cell viability loss – fluorescence readout (AID 620); type: functional, cell-based; settings: Homo sapiens
[13] = biological target: T5, Microphthalmia-associated transcription factor (Homo sapiens, UniProt O75030); assay: reducers of TRPM1 reporter luminescence, concentration series – cell-based, SK-MEL-5, cherry-picked, set 3, MITF inhibitor project, dose response (AID 493073); type: functional;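 further: SK-MEL-5 melanoma cells with luciferase driven by the MITF target TRPM1 promoter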
T5 sequence (O75030 whole entry): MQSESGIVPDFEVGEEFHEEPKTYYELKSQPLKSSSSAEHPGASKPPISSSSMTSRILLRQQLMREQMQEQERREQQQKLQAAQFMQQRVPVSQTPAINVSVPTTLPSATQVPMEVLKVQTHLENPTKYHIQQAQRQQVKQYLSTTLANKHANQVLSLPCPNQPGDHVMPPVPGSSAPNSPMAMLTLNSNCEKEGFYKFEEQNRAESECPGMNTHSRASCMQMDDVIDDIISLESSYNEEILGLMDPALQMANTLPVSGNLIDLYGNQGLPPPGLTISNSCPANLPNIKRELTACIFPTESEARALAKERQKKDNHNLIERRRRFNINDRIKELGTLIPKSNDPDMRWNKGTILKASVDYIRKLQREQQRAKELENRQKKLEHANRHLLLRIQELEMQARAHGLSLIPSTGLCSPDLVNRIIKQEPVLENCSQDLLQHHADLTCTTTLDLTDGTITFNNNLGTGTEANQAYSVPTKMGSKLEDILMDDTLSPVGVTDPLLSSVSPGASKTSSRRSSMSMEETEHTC

[14] = biological target: Neurotensin receptor type 1 (Homo sapiens, UniProt P30989); type: functional;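 further: Image-based confirmatory dose-response assay measuring agonist activity at NTR1; NTR1-expressing U2OS osteosarcoma cells imaged for beta-arrestin GFP spot formation; agonist potency where compounds increase beta-arrestin recruitment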
X-box-binding protein 1 = X-box-binding protein 1 (Homo sapiens, UniProt P17861); type: functional, Cricetulus griseus;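 further: confirmatory dose-response counter-screen serving a CHOP assay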
Estrogen receptor = biological target: T6, Estrogen receptor (Homo sapiens, UniProt P03372); assay: ERα coactivator recruitment enhancers – biochemical, TR-FRET, ERα LBD, dose response (AID 737)
T6 sequence (P03372 whole entry): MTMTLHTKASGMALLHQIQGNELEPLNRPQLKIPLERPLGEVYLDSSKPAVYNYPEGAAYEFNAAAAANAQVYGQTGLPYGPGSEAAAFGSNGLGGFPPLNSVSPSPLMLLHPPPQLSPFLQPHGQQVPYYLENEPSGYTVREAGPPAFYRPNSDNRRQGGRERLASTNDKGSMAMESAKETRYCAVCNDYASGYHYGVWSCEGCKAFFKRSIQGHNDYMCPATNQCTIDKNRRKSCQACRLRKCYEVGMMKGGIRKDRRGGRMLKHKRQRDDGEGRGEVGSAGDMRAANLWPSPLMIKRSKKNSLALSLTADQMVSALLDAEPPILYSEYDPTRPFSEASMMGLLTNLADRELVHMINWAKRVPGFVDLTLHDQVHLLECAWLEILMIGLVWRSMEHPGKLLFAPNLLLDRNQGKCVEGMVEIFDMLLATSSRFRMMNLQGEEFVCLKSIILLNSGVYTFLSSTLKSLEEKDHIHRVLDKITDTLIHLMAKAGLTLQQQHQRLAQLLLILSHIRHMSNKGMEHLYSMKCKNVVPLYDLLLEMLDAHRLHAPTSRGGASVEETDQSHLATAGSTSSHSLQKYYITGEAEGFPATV

[15] = viability inhibitors of stage V gametocytes – luminescence, dose response (AID 1117278); type: functional, cell-based;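 further: gametocytes exposed to compound for 24 hours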
[16] = viability loss in human Jurkat cells – cell-based, luminescence, cytotoxicity control for P. falciparum gametocyte viability project, dose response (AID 1117277); type: functional;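 further: potency reflects loss of cellular ATP meaning fewer viable cells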
Estrogen receptor beta = Estrogen receptor beta (Homo sapiens, UniProt Q92731);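 further: recombinant ER-beta bound to coactivator SRC1 peptide in presence of estradiol agonist; inhibitors block coactivator peptide binding and lower the FRET signal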
[17] = biological target: Acyl-homoserine lactone acylase PvdQ (Pseudomonas aeruginosa (strain LESB58), UniProt Q9I194); assay: PvdQ acylase enzyme activity blockers – biochemical, fluorescence, plate reader and imaging, cherry-picks, dose response (AID 493231)
[18] = Luminescence-based counterscreen assay for KLF5 inhibitors: dose response cell-based high throughput screening assay to identify cytotoxic compounds using the IEC-6 intestinal epithelial cell line. [Related pubchem assays: 1700 (Primary screen.), 1834 (Confirmation screen.), 1858 (Summary AID.), 1905 (Counterscreen.)]; type: functional
[19] = system: Streptococcus sp. 'group A'; assay: Streptococcus pyogenes SK(-)GAS viability under kanamycin – luminescence, BacTiterGlo, confirmation, counter-screen for streptokinase expression inhibitor project, dose response (AID 1900); type: functional, organism-based
Streptococcus = assay: GAS UMAA2166 growth inhibition – luminescence, BacTiterGlo, counter-screen for streptokinase expression inhibitor project, dose response (AID 1915); type: functional, organism-based;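 further: potency for reduction of bacterial viability or growth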

## COc1cccc(N2CCN(C3=C(Cl)C(=O)N(c4ccc(Cl)c(Cl)c4)C3=O)CC2)c1
Bcl-2-related protein A1 [1]
  IC50: 1.26 µM (active)
[2]
  IC50: > 100 µM (not active)
Bcl-2-related protein A1 [3]
  IC50: 4.83 µM (active)

## O=[N+]([O-])c1cc(O/N=C/c2ccccc2)cc([N+](=O)[O-])c1
NADPH oxidase 1
  IC50: > 17 µM (not active)

## Cc1cccc(CSCCNC(=O)COc2ccc(Cl)cc2)c1
[4]
  EC50: > 195 µM (not active)
[5]
  IC50: 13.3 µM (not active)

## C[C@@H]1CN(C2=C(Cl)C(=O)N(c3ccc(Cl)c(Cl)c3)C2=O)[C@@H](C)CN1
Bcl-2-related protein A1 [1]
  IC50: 15.9 µM (active)
[2]
  IC50: > 100 µM (not active)
Bcl-2-related protein A1 [3]
  IC50: 8.29 µM (active)

## C=CCn1c(SCc2c(C)noc2C)nnc1C1COc2ccccc2O1 (stereo unspecified)
[6]
  IC50: 24.7 µM (active)

## Cc1ccc(-[n+]2c(-c3ccccc3)cn3c2CCc2ccccc2-3)c(C)c1
[7]
  IC50: 5.9 µM (active)
[8]
  IC50: 3.65 µM (active)
INS1
  AC50: 1.91 µM (active)
[9]
  EC50: 96.9 µM (active)
[10]
  EC50: 1.24 µM (active)
[11]
  IC50: > 80 µM (inactive)

## COc1ccc(C(=O)Nc2ccc3c(c2)OCCO3)cc1
[12]
  EC50: < 0.2 µM (active)
HT-1080
  EC50: > 50 µM (not active)

## CCOC(=O)c1ccc(NC(=O)c2ccc(C)c(S(=O)(=O)N3CCOCC3)c2)cc1
[13]
  AC50: 5.36 µM (active)
[14]
  EC50: 17.3 µM (active)

## CCCOc1ccc(N2C(=O)CC(SC(=NC)Nc3ccc(F)cc3)C2=O)cc1 (stereo unspecified)
X-box-binding protein 1
  Absolute IC50 (XBP1): 10 µM

## COc1ccc(S(=O)(=O)N2CCN(c3ccccc3OC)CC2)cc1OC
[6]
  IC50: 23.3 µM (active)

## CCC(C)(C(=O)NC1CCCCC1)N(Cc1ccco1)C(=O)Cc1cccs1 (stereo unspecified)
[7]
  IC50: > 35 µM (not active)
[8]
  IC50: 12.3 µM (not active)

## FC(F)(F)Oc1ccc(/C=N/Nc2c(Cl)cncc2Cl)cc1
NADPH oxidase 1
  IC50: > 17 µM (not active)

## COC(=O)c1c(-c2ccncc2)csc1NC(=O)c1ccoc1C
Estrogen receptor
  EC50: 23.1 µM (active)
[15]
  IC50: > 109 µM (inactive)
[16]
  IC50: > 83.3 µM (inactive)

## CCCNc1nc(N2CCOCC2)nc(N2CCOCC2)n1
Estrogen receptor beta
  IC50: > 50 µM (not active)

## COc1ccc(-c2ccc(-c3noc(-c4cccs4)n3)c(OC)n2)cc1
Estrogen receptor
  EC50: 12.9 µM (active)

## Fc1ccc(CNCc2cccc(Br)c2)cc1
[17]
  AC50: 30.2 µM (active)

## COc1cccc(/C=N/NC(=O)c2cc3c(OC)ccc(OC)c3[nH]2)c1O
[18]
  IC50: 16.3 µM (not active)
INS1
  AC50: 4.13 µM (active)
[19]
  EC50: 1.23 µM (active)
Streptococcus
  EC50: 3.31 µM (active)

## O=C1Nc2ccccc2C12OCCS2 (stereo unspecified)
Estrogen receptor beta
  IC50: > 50 µM (not active)
